The values below come from patent publication EP1746087A1, “Derivates of 3-indolylmethylene having cytostatic properties” (Universitaet Regensburg, priority 2005, dated 2007).

Molecules are shown by their SMILES. Read-outs that look alike come from different tables or passages of the source.

Holding throughout (assay type): cell-based, menschlich
Test [1] deals with MDA-MB-231-Brustkrebszellen. Put plainly: Growth inhibition of MDA-MB-231 breast cancer cells in vitro (cytostatic effect). The settings on record: MDA-MB-231 cells, read-out: IC50 Hemmwirkung auf das Wachstum. An excerpt: (§1) Die cytostatische Wirkung der erfindungsgemäßen Verbindungen wurde an zwei verschiedenen menschlichen Mammacarcinomzellinien in vitro bestimmt (M. Goldbrunner et al., J.Med.Chem. 1997,40,3525). Es handelt sich dabei um die hormonunabhängige MDA-MB-231-Zellinie und die estrogensensitive MCF-7-Linie. Die MDA-MB-231-Zellen wurden auch für die durchflusszytometrischen Analysen zur Zellzyklusverteilung herangezogen (M.J.J. Jaroszeski und R. Heller, Flow Cytometry Protocols, Humana Press, 1998, Totowa New Jersey). Besonders überraschend war, dass diese synthetischen Verbindungen häufig bereits im Konzentrationsbereich von 10 bis 100 nanomolar das Wachstum von menschlichen Tumorzellen stark hemmen, obwohl sie nur ein relativ niedriges Molekulargewicht aufweisen (MG ~ 320 - 500) (Tabelle 2 und 3, Abb. 2). Potente Therapeutika, die ebenfalls in den Zellzyklus eingreifen, besitzen Molekulargewichte im Bereich von 825 (Vincristin als Base) und 850 (Paclitaxel).

Test [2] has as its system MCF-7-Mammacarcinomzellen. Put plainly: Growth inhibition of MCF-7 mammary carcinoma cells in vitro (cytostatic effect). The settings on record: MCF-7 cells, read-out: IC50 Hemmwirkung auf das Wachstum.
Text: as §1

Test [3] deals with MDA-MB-231-Mammacarcinomzellen. As to the kind of experiment: Flow-cytometric analysis of cell cycle distribution.
Text: as §1

By IC50 is commonly meant the concentration needed to halve the response being measured. For `COc1ccc(-c2[nH]c3ccc(C)cc3c2C=C(C#N)C#N)cc1` [Verbindung 1, [2-(4-Methoxyphenyl)-5-methyl-indol-3-yl]-methylenpropandinitril], the IC50 in test [1] (Homo sapiens) came to 280 nM. Also, in test [2] (Homo sapiens, MCF7), the IC50 is 200 nM. Moreover, in test [3] (Konz. 0.5 µM), the Debris % amounted to 7.8%, the G1/G0 % is listed as 41.0%, the G2/M % amounted to 32.0% and the S % is on record as 19.2%. In test [3] (Konz. 1.0 µM), this compound yielded a Debris % of 16.4%, a G1/G0 % of 16.9%, a G2/M % of 45.4% and a S % of 21.3%. Moreover, in test [3] (Konz. 5.0 µM), the Debris % was found to be 6.4%, the G1/G0 % was 9.8%, the G2/M % came to 57.7% and the S % was found to be 26.1%.

For `CCCCCc1ccc2[nH]c(-c3ccc(OC)cc3)c(C=C(C#N)C#N)c2c1` [Verbindung 8, [2-(4-Methoxyphenyl)-5-n-pentyl-indol-3-yl]-methylenpropandinitril], the IC50 in test [1] (Homo sapiens) stood at 42 nM; in test [2] (Homo sapiens, MCF7), 76 nM.

Consider `CCCCCCc1ccc2[nH]c(-c3ccc(OC)cc3)c(C=C(C#N)C#N)c2c1` [Verbindung 9, [5-n-Hexyl-2-(4-methoxyphenyl)-indol-3-yl]-methylenpropandinitril], for which the IC50 in test [1] (Homo sapiens) is 46 nM; in test [2] (Homo sapiens, MCF7), 25 nM. Further, the values for the Debris % in test [3] (Konz. 0.1 µM), in test [3] (Konz. 0.5 µM) and in test [3] (Konz. 1.0 µM) were 6.1%, 22.6% and 15.9%, respectively. In addition, the figures for the G1/G0 % in test [3] (Konz. 0.1 µM), in test [3] (Konz. 0.5 µM) and in test [3] (Konz. 1.0 µM) were 46.2%, 7.4% and 7.1%, respectively. The G2/M % in test [3] (Konz. 0.1 µM) was found to be 22.4%; in test [3] (Konz. 0.5 µM) it was 53.9%; in test [3] (Konz. 1.0 µM) it was 57.3%. Moreover, the S % amounted to 25.3% in test [3] (Konz. 0.1 µM), 16.1% in test [3] (Konz. 0.5 µM) and 19.7% in test [3] (Konz. 1.0 µM).

In the case of `CCCCc1ccc2[nH]c(-c3ccc(C(F)(F)F)cc3)c(C=NC)c2c1` [Verbindung 19, 5-n-Butyl-2-[4-(trifluormethyl)-phenyl]-indol-3-carbaldehyd-methylimin], the IC50 in test [1] worked out at 32 nM; in test [2], 140 nM. In addition, the Debris % is 4.4% in test [3] (Konz. 0.01 µM), 14.6% in test [3] (Konz. 0.05 µM), 27.1% in test [3] (Konz. 0.1 µM) and 20.5% in test [3] (Konz. 0.5 µM). Besides, the G1/G0 % worked out at 43.8% in test [3] (Konz. 0.01 µM), 38.9% in test [3] (Konz. 0.05 µM), 5.5% in test [3] (Konz. 0.1 µM) and 6.3% in test [3] (Konz. 0.5 µM). Further, the G2/M % in test [3] (Konz. 0.01 µM) was 36.6%; in test [3] (Konz. 0.05 µM) it was 30.8%; in test [3] (Konz. 0.1 µM) it was 59.3%; in test [3] (Konz. 0.5 µM), 59.8%. The S % was 14.0% in test [3] (Konz. 0.01 µM), 15.3% in test [3] (Konz. 0.05 µM), 7.2% in test [3] (Konz. 0.1 µM) and 11.1% in test [3] (Konz. 0.5 µM).

Consider `CCCCc1ccc2[nH]c(-c3ccc(OC)cc3)c(C=NO)c2c1` [Verbindung 20, 5-n-Butyl-2-(4-methoxyphenyl)-indol-3-carbaldehyd-oxim], for which the IC50 in test [1] (Homo sapiens) turned out to be 40 nM; in test [2] (Homo sapiens, MCF7) it was 210 nM. Also, the Debris % in test [3] (Konz. 0.05 µM) worked out at 7.3%; in test [3] (Konz. 0.1 µM) it was 12.2%; in test [3] (Konz. 0.5 µM), 9.6%; in test [3] (Konz. 1.0 µM), 13.8%. Further, the G1/G0 % is on record as 50.0% in test [3] (Konz. 0.05 µM), 38.6% in test [3] (Konz. 0.1 µM), 9.0% in test [3] (Konz. 0.5 µM) and 9.6% in test [3] (Konz. 1.0 µM). Moreover, the G2/M % in test [3] (Konz. 0.05 µM) worked out at 30.0%; in test [3] (Konz. 0.1 µM), 34.9%; in test [3] (Konz. 0.5 µM), 64.6%; in test [3] (Konz. 1.0 µM), 54.8%. Also, the S % in test [3] (Konz. 0.05 µM) worked out at 13.2%; in test [3] (Konz. 0.1 µM) it was 14.4%; in test [3] (Konz. 0.5 µM), 14.4%; in test [3] (Konz. 1.0 µM), 21.2%.

For `CCCCc1ccc2[nH]c(-c3ccc(OC)cc3)c(C=NNC(=O)c3ccccc3)c2c1` [Verbindung 22, 5-n-Butyl-2-(4-methoxyphenyl)-indol-3-carbaldehyd-benzoylhydrazon], the IC50 in test [1] (Homo sapiens) is 32 nM; in test [2] (Homo sapiens, MCF7) it was 130 nM.

Take `CCCCc1ccc2[nH]c(-c3ccc(C(F)(F)F)cc3)c(C=NNC(=O)c3cccnc3)c2c1` [Verbindung 25, 5-Butyl-2-[4-(trifluormethyl)-phenyl]-indol-3-carbaldehyd-nicotinylhydrazone]: the values for the 50% inhibitory concentration (IC50) in test [1] and in test [2] were 97 nM and 260 nM, respectively. Besides, the Debris % stood at 2.3% in test [3] (Konz. 0.01 µM), 2.7% in test [3] (Konz. 0.05 µM), 2.6% in test [3] (Konz. 0.1 µM) and 6.9% in test [3] (Konz. 0.5 µM). Moreover, the G1/G0 % came out at 50.8% in test [3] (Konz. 0.01 µM), 51.2% in test [3] (Konz. 0.05 µM), 48.8% in test [3] (Konz. 0.1 µM) and 11.4% in test [3] (Konz. 0.5 µM). Further, the G2/M % was determined as 26.3% in test [3] (Konz. 0.01 µM), 24.1% in test [3] (Konz. 0.05 µM), 24.9% in test [3] (Konz. 0.1 µM) and 75.2% in test [3] (Konz. 0.5 µM). Moreover, the S % in test [3] (Konz. 0.01 µM) is 21.7%; in test [3] (Konz. 0.05 µM), 23.1%; in test [3] (Konz. 0.1 µM), 24.4%; in test [3] (Konz. 0.5 µM) it was 11.0%.
